# According to US20240317686A1, “RORyT MODULATOR, AND PREPARATION METHOD THEREFOR AND APPLICATION THEREOF” (SHANGHAI PHARMACEUTICALS HOLDING CO., LTD., priority 2020, published 2024):
# Biological target: T1, RORγt (Homo sapiens, UniProt P51449)
# T1 construct: Prepare 4×RORgt-LBD in 1× buffer
# T1 sequence (P51449 269-508 limits assumed): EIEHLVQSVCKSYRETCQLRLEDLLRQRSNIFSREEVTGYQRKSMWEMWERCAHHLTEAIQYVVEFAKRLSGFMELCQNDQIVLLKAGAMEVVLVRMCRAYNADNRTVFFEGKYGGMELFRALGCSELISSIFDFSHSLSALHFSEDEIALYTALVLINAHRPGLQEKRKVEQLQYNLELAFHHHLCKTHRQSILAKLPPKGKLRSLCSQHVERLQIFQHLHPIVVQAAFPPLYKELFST
# Test: Fluorescence resonance energy transfer (FRET) assay of inhibitory activity on RORγt
# Type: biochemical
# Details: RORgt-LBD GST with SRC peptide
# Description: Fluorescence resonance energy transfer (FRET) experiment was performed to assay the inhibitory activity of the compound of the present invention on RORγt.
# 1) Preparation of DMSO stock solutions of the compounds: All compounds were dissolved in DMSO to prepare 10 mM stock solutions.
# 2) Compound storage: After the compound was dissolved in DMSO, the solution can be stored in a desiccator at room temperature for three months. For long-term storage, the solution should be put in a −20° C. refrigerator.
# 3) Preparation of working solution: • a) Positive control compound AZD0284: Starting from 500 µM, the solution was diluted serially by 3-folds with DMSO to obtain a 10-concentration gradient, each concentration with 3 replicate wells. 2 wells were pipetted. The gradiently diluted compound was diluted in a reaction buffer to obtain a 4× working solution (starting from 40 μM, diluted gradiently by 3-folds) of the positive control compound. • b) Compounds to be tested: Starting from 500 μM, the solution was diluted serially by 3-folds with DMSO to obtain a 10-concentration gradient, each concentration with 3 replicate wells. 2 wells were pipetted. The gradiently diluted compound was diluted in a reaction buffer to obtain a 4× working solution ([…], diluted gradiently by 3-folds) of the compounds to be tested. • c) Prepare a 4× negative control (8% DMSO). • d) Centrifuge the plate at 1000 rpm for 1 min.
# 1) Prepare 4× serially diluted compounds in 1× buffer.
# 2) Add 5 μl of the 4× serially diluted compound (prepared in step 1) to a 384 assay plate (784075, Greiner).
# 3) Prepare 4×RORgt-LBD in 1× buffer.
# 4) Add 5 μl of the 4×RORgt-LBD (prepared in step 3) to the 384 assay plate (prepared in step 2).
# 5) Incubate the assay plate for 15 min at room temperature, protected from light.
# 6) Prepare a 2× mixture of SRC, anti-GST Eu and streptavidin-d2 in 1× […].
# 7) Add 10 μl of the 2× mixture (prepared in step 6) to the 384 assay plate (prepared in step 4).
# 8) Centrifuge the 384 assay plates at 1000 g for 1 min.
# 9) Incubate for 3 h at room temperature, protected from light.
# 10) Read the plate at wavelengths of 665 nm and 615 nm on an Envision 2104 plate reader.
# Relative ratio (RR): Calculate the relative ratio (response value at 665 nm/response value at 615 nm-response value in blank background) of each well.
# Inhibition rate %=[1−(fluorescence detection value of the compound−fluorescence detection average of the positive compound)/(fluorescence detection average of the negative control−fluorescence detection average of the positive compound)]×100
# Calculate the IC50 and dose-response curve of the compound: The IC50 and dose-response curve of the compound were obtained via Graphpad 8.0 by calculating the inhibition rate of the compound and the log value of the compound concentration.
row,Structure (SMILES),IC50
1,"CCS(=O)(=O)c1ccc(CC(=O)Nc2ccc(C(=O)C3(c4cnn(C)c4)CC3)nc2)cc1 [Compound I-60, 2-(4-(ethylsulfonyl)phenyl)-N-(6-(1-(1-methyl-1H-pyrazol-4-yl)cyclopropane-1-carbonyl)pyridin-3-yl)acetamide]",100 to 1000 nM
2,CCS(=O)(=O)c1ccc(CC(=O)Nc2ccc(C(=O)C3(c4ccc(Cl)cc4)CC(F)(F)C3)nc2)cc1 [Compound I-35],1 to 10 nM
3,"CCS(=O)(=O)c1ccc(CC(=O)Nc2ccc(C(=O)C(C)(C)c3cncc(Cl)c3)nc2)cc1 [Compound I-32, N-(6-(2-(5-chloropyridin-3-yl)-2-methylpropionyl)pyridin-3-yl)-2-(4-(ethylsulfonyl)phenyl)acetamide]",10 to 50 nM
4,"CCS(=O)(=O)c1ccc(CC(=O)Nc2ccc(C(=O)C(C)(C)c3nc(C)c(C)o3)nc2)cc1 [Compound I-56, N-(6-(2-(4,5-dimethyloxazol-2-yl)-2-methylpropionyl)pyridin-3-yl)-2-(4-(ethylsulfonyl)phenyl) acetamide]",10 to 50 nM
5,CCS(=O)(=O)c1ccc(CC(=O)Nc2ccc(C(=O)C(C)(C)c3ccc(C(F)(F)F)nc3)nc2)cc1 [Compound I-50],50 to 100 nM
6,CCS(=O)(=O)c1ccc(CC(=O)Nc2ccc(C(=O)C(C)(C)c3nc(C)co3)nc2)cc1 [Compound I-62],50 to 100 nM
7,"CCS(=O)(=O)c1ccc(CC(=O)Nc2ccc(C(=O)C(C)(C)c3ncc(F)cc3F)nc2)cc1 [Compound I-41, N-[6-[2-(3,5-difluoro-2-pyridyl)-2-methyl-propionyl]-3-pyridyl]-2-(4-ethylsulfonylphenyl)acetamide]",1 to 10 nM
8,"CCS(=O)(=O)c1ccc(CC(=O)Nc2ccc(C(=O)C(F)(F)c3ccc(Cl)cc3)nc2)cc1 [Compound I-39, N-(6-(2-(4-chlorophenyl)-2,2-difluoroacetyl)pyridin-3-yl)-2-(4-(ethylsulfonyl)phenyl)acetamide]",> 1000 nM
9,"CCS(=O)(=O)c1ccc(CC(=O)Nc2ccc(C(=O)C3(c4ccc(Cl)cc4)CCC3)nc2)cc1 [Compound I-8, N-(6-(1-(4-chlorophenyl)cyclobutane-1-carbonyl)pyridin-3-yl)-2-(4-(ethylsulfonyl)phenyl)acetamide]",1 to 10 nM
10,CCS(=O)(=O)c1ccc(CC(=O)Nc2ccc(C(=O)C3(c4ccc(F)cc4)CC(F)(F)C3)nc2)cc1 [Compound I-66],1 to 10 nM
11,CCS(=O)(=O)c1ccc(CC(=O)Nc2ccc(C(=O)C(C)(C)n3cc(C)cn3)nc2)cc1 [Compound I-37],100 to 1000 nM
12,"CCS(=O)(=O)c1ccc(CC(=O)Nc2ccc(C(=O)C3(c4ccc(Cl)cc4)CC3)nc2)cc1 [Compound I-11, N-(6-(1-(4-chlorophenyl)cyclopropane-1-carbonyl)pyridin-3-yl)-2-(4-(ethylsulfonyl)phenyl)acetamide]",1 to 10 nM
13,CNS(=O)(=O)c1ccc(CC(=O)Nc2ccc(C(=O)C(C)(C)c3ccc(F)c(Cl)c3)nc2)cc1 [Compound I-47],1 to 10 nM
14,"CNS(=O)(=O)c1ccc(CC(=O)Nc2ccc(C(=O)C3(c4ccc(F)cc4)CC(F)(F)C3)nc2)cc1 [Compound I-75, N-(6-(3,3-difluoro-1-(4-fluorophenyl)cyclobutane-1-carbonyl)pyridin-3-yl)-2-(4-(N-methylsulfamoyl)phenyl)acetamide]",1 to 10 nM
15,CCS(=O)(=O)c1ccc(CC(=O)Nc2ccc(C(=O)C(C)(C)c3cccc(C(F)(F)F)n3)nc2)cc1 [Compound I-76],1 to 10 nM
16,"CCS(=O)(=O)c1ccc(CC(=O)Nc2ccc(C(=O)C(C)(C)c3ccc(F)c(Cl)c3)nc2)nc1 [Compound I-26, N-(6-(2-(3-chloro-4-fluorophenyl)-2-methylpropionyl)pyridin-3-yl)-2-(5-(ethylsulfonyl)pyridin-2-yl)acetamide]",1 to 10 nM
17,CCS(=O)(=O)c1ccc(CC(=O)Nc2ccc(C(=O)C(C)(C)n3ccc(C)n3)nc2)cc1 [Compound I-38],> 1000 nM
18,"CCS(=O)(=O)c1ccc(CC(=O)Nc2ccc(C(=O)C(C)(C)c3ccc(Cl)cc3)cn2)cc1 [Compound I-2, N-[5-[2-(4-chlorophenyl)-2-methyl-propionyl]-2-pyridyl]-2-(4-ethylsulfonylphenyl)acetamide]",10 to 50 nM
19,CCS(=O)(=O)c1ccc(CC(=O)Nc2ccc(C(=O)C(C)(C)c3ccc(F)c(Br)c3)nc2)cc1 [Compound I-15],1 to 10 nM
20,"CCS(=O)(=O)c1ccc(CC(=O)Nc2ccc(C(=O)C(C)(C)c3ccc(F)c(Cl)c3)nc2)cc1 [Compound I-6, N-(6-(2-(3-chloro-4-fluorophenyl)-2-methylpropionyl)pyridin-3-yl)-2-(4-(ethylsulfonyl)phenyl) acetamide]",1 to 10 nM

# Continued, values first:
row,IC50,Structure (SMILES)
1,1 to 10 nM,"CCS(=O)(=O)c1ccc(CC(=O)Nc2ccc(C(=O)C(C)(C)c3cc(C#N)ccn3)nc2)cc1 [Compound I-40, N-(6-(2-(4-cyanopyridin-2-yl)-2-methylpropionyl)pyridin-3-yl)-2-(4-(ethylsulfonyl)phenyl)acetamide]"
2,1 to 10 nM,CCS(=O)(=O)c1ccc(CC(=O)Nc2ccc(C(=O)C(C)(C)c3ccnc(C(F)(F)F)c3)nc2)cc1 [Compound I-52]
3,1 to 10 nM,"CCS(=O)(=O)c1ccc(CC(=O)Nc2ccc(C(=O)C(C)(C)c3cc(Br)ccn3)nc2)cc1 [Compound I-58, N-(6-(2-(4-bromopyridin-2-yl)-2-methylpropionyl)pyridin-3-yl)-2-(4-(ethylsulfonyl)phenyl)acetamide]"
4,10 to 50 nM,CCS(=O)(=O)c1ccc(CC(=O)Nc2ccc(C(=O)C(c3ccccn3)C(C)C)nc2)cc1 (centres unmarked) [Compound I-74]
5,1 to 10 nM,"CCS(=O)(=O)c1ccc(CC(=O)Nc2ccc(C(=O)C(C)(C)c3ccc(F)cc3F)nc2)cc1 [Compound I-12, N-(6-(2-(2,4-difluorophenyl)-2-methylpropionyl)pyridin-3-yl)-2-(4-(ethylsulfonyl)phenyl)acetamide]"
6,1 to 10 nM,CCS(=O)(=O)c1ccc(CC(=O)Nc2ccc(C(=O)C(C)(C)c3ccncc3)nc2)cc1 [Compound I-19]
7,10 to 50 nM,"CCS(=O)(=O)c1ccc(CC(=O)Nc2ccc(C(=O)C(C)c3ccccn3)nc2)cc1 (centres unmarked) [Compound I-73, 2-(4-(ethylsulfonyl)phenyl)-N-(6-(2-(pyridin-2-yl)propanoyl)pyridin-3-yl)acetamide]"
8,1 to 10 nM,"CCS(=O)(=O)c1ccc(CC(=O)Nc2ccc(C(=O)C(C)(C)c3ncccc3F)nc2)cc1 [Compound I-44, 2-(4-(ethylsulfonyl)phenyl)-N-(6-(2-(3-fluoropyridin-2-yl)-2-methylpropionyl)pyridin-3-yl)acetamide]"
9,1 to 10 nM,CCS(=O)(=O)c1ccc(CC(=O)Nc2ccc(C(=O)C(C)(C)c3ccc(F)cc3)nc2)cc1 [Compound I-4]
10,10 to 50 nM,"CCS(=O)(=O)c1ccc(CC(=O)Nc2ccc(C(=O)C(C)(C)c3ccc(Cl)cc3)nc2)cc1 [Compound I-3, N-[6-[2-(4-chlorophenyl)-2-methylpropionyl]-3-pyridyl]-2-(4-ethylsulfonylphenyl)acetamide]"
11,1 to 10 nM,"CCS(=O)(=O)c1ccc(CC(=O)Nc2ccc(C(=O)C(C)c3ccc(Cl)cc3)nc2)cc1 (centres unmarked) [Compound I-14, N-(6-(2-(4-chlorophenyl)propionyl)pyridin-3-yl)-2-(4-(ethylsulfonyl)phenyl)acetamide]"
12,10 to 50 nM,CCS(=O)(=O)c1ccc(CC(=O)Nc2ccc(C(=O)C(C)(C)c3ccc(F)cn3)nc2)cc1 [Compound I-28]
13,> 1000 nM,"CN(C)S(=O)(=O)c1ccc(CC(=O)Nc2ccc(C(=O)C(C)(C)c3ccccn3)nc2)cc1 [Compound I-64, 2-(4-(N,N-dimethylsulfamoyl)phenyl)-N-(6-(2-methyl-2-(pyridin-2-yl)propionyl)pyridin-3-yl)acetamide]"
14,10 to 50 nM,CCC(C(=O)c1ccc(NC(=O)Cc2ccc(S(=O)(=O)CC)cc2)cn1)c1ccccn1 (centres unmarked) [Compound I-69]
15,1 to 10 nM,CCS(=O)(=O)c1ccc(CC(=O)Nc2ccc(C(=O)C(C)(C)c3ccnc(C)c3)nc2)cc1 [Compound I-29]
